Source: paper PMC9558053, “Development of a novel high-throughput screen for the identification of new inhibitors of protein S-acylation” (The Journal of Biological Chemistry, 2022)

Molecular target: T1, human zDHHC2 (Homo sapiens, UniProt Q9UIJ5)
T1 construct: expressed in transfected cells; host or cells: HEK293T
T1 sequence (Q9UIJ5 1-367): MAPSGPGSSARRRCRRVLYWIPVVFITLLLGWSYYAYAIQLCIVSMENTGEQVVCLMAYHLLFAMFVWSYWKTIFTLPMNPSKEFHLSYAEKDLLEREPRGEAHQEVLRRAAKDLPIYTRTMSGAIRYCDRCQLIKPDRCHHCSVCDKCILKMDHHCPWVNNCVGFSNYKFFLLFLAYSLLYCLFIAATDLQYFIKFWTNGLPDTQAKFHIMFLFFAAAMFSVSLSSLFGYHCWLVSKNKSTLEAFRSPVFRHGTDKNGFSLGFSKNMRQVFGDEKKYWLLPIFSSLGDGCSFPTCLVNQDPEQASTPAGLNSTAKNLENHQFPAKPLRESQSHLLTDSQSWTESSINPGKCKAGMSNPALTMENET
Assay: S-acylation (autoacylation) of HA-zDHHC2 in HEK293T cells, click chemistry
Type: cell-based
Conditions: resynthesized UoS compounds, 25 μM, p < 0.001 vs DMSO
Method: Figure 8 Activity of TTZ-1 (UoS) and TTZ-2 (UoS) against human zDHHC2 autoacylation expressed in mammalian cells. HEK293T cells were transfected with either the control plasmid pEF-BOS-HA (pEF) or a plasmid encoding HA-tagged human zDHHC2 (zD2) for 24 h. Cells were then preincubated for 4 h with UoS compounds TTZ-1 (UoS) (A) or TTZ-2 (UoS) (B) (25 μM final) or DMSO control before metabolic labeling with 100 μM C16:0-azide for 4 h. Cells were lysed, and proteins having incorporated C16:0-azide were labeled by click chemistry with an alkyne-IR800 dye. Protein samples were then resolved by SDS-PAGE, and the gel was scanned for the detection of the click chemistry signal in the infrared-800 channel. […] Two independent experiments were performed in sextuplicate, and the quantification data were gathered on the graphs below each set of membranes. […]
HEK293T cells were plated on poly-D-lysine–coated 24-well plates (catalog no.: 356413; Corning BioCoat, VWR) and transfected with 2.4 μg of pEF-zDHHC2 plasmid (or the control empty plasmid pEF-BOS-HA) for the measurement of zDHHC2 autoacylation and 4.8 μl of Lipofectamine 2000 (Invitrogen). […] Membranes were first stained with Revert 700 total protein stain kit (catalog no.: 926-11016; LI-COR), imaged, destained, and then analyzed by immunoblotting. Signals were quantified with ImageStudio software (LI-COR). […]

CCCCCCCOc1ccc(C(=O)Nc2cccc3c2OC(c2nnn[nH]2)CN3)cc1 (centres unmarked) [TTZ-1, N-(2-(1H-Tetrazol-5-yl)-3,4-dihydro-2H-benzo[b][1,4]oxazin-8-yl)-4-(heptyloxy)benzamide]
S-acylation of HA-zDHHC2 in HEK293T cells: significantly reduced

O=C(Nc1cccc2c1OC(c1nnn[nH]1)CN2)c1ccc(OCCCCc2ccccc2)cc1 (centres unmarked) [TTZ-2, N-(2-(1H-Tetrazol-5-yl)-3,4-dihydro-2H-benzo[b][1,4]oxazin-8-yl)-4-(4-phenylbutoxy)benzamide]
S-acylation of HA-zDHHC2 in HEK293T cells: significantly reduced
